“Also recorded” adds a separate entry of the source.
Molecular target: T1, MMP9(107-216,391-443) (Homo sapiens, UniProt P14780, DEL217-390)
T1 construct: phenylalanine (107) and a stop codon was introduced, via the 3′ primer, after residue 443; made in house; host or cells: E. coli BL21(DE3)
T1 sequence (P14780 with tags, fused parts or gaps DEL217-390 limits assumed): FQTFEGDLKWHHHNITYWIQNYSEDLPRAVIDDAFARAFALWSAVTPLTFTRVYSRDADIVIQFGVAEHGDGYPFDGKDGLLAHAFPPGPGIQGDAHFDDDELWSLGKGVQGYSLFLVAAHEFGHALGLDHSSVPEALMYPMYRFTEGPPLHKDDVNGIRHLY
Assay: Auto-proteolysis (autodegradation) of MMP9 catalytic domain during refolding, storage and crystallisation
Format: biochemical
From the text: Another major hurdle in the crystallisation and structure determination of MMP9 is that the MMP9 catalytic domain is aggressively autolytic. We therefore purified wild-type MMP9 in the presence of an inhibitor and then crystallised the purified complex. Addition of an inhibitor during the refolding step following urea denaturation is essential for prevention of N-terminal degradation and the formation of well-ordered crystals.
Following expression in E. coli, MMP9(107-216,391-443) is mainly located in the inclusion body fraction. The E. coli were harvested, washed and lysed and centrifuged to isolate the insoluble protein. The insoluble fraction was then suspended in 6M Urea to solubilise the protein. To generate active MMP9(107-216,391-443) the solubilised material was dialysed sequentially versus 4M, 1M and 0M Urea. […] Post dialysis, the protein was subjected to zinc chelate chromatography which selectively bound the MMP9 catalytic domain. A further chromatography step was then carried out using the tripeptide Pro-Leu-Gly bound to sepharose which bound correctly folded MMP9 catalytic domain. The protein was then eluted by addition of an MMP9 inhibitor. Expression and refolding of the [E402Q]MMP9(107-216,391-443) construct was carried out as for the wild type construct except that no acetohydroxamic acid was added to the refold buffers. […]

## CC(=O)NO [acetohydroxamic acid]
Added to the refold buffers, wild type MMP9 catalytic domain
  auto-proteolysis of the N-terminus / autodegradation of the wild type MMP9 protein during refolding: prevent autodegradation; also recorded: inhibited auto-proteolysis of the N-terminus of the protein
Storage or crystallisation period, wild type MMP9
  autodegradation of the wild type MMP9 protein during storage or during the period of crystallisation: not sufficiently potent to prevent autodegradation
